US7001983B1, “Antipathogenic synthetic peptides and compositions comprising them” (priority 1997, dated 2006)
Values joined by “and” are separate entries in the source; they are usually repeats but may differ in a detail not shown here. Equal entries are not always repeated. Square brackets hold non-standard residues; d marks the D form. Peptide text beside a SMILES is read from it.

What was measured:
[1] = system: Bacillus subtilis ATCC 6051; type: cell-based; conditions: 100% inhibition of growth after 18–20 h
[2] = system: Escherichia coli D21; type: cell-based; conditions: for Minimal Inhibitory Concentration E. coli (D21): 100% inhibition of growth after 18–20 h
[3] = system: Pseudomonas aeruginosa ATCC 27853; conditions: for Minimal Inhibitory Concentration P. aeruginosa (ATCC 27853): 100% inhibition of growth after 18–20 h
Method: (viii) Antibacterial activity of the peptides.
Antibacterial activity of the mixtures was determined as described in Experimental procedures, section (xii).

[4] = system: Acinetobacter calcoaceticus Ac11; type: cell-based; conditions: 100% inhibition of growth after 18–20 h
[5] = system: Bacillus megaterium Bm11; type: cell-based; conditions: 100% inhibition of growth after 18–20 h
[6] = system: human red blood cells (hRBC); test: Hemolysis of human red blood cells; type: cell-based; conditions: for % hemolysis at 100 μM / % hemolysis at 50 μM peptide: 30 min at 37° C.
Method: (ix) Hemolysis of human red blood cells. The peptides were tested for their hemolytic activities against human red blood cells (hRBC). Fresh hRBC with EDTA were rinsed 3 times with PBS (35 mM phosphate buffer/0.15 M NaCl, pH 7.3) by centrifugation for 10 min at 800 g and resuspended in PBS. Peptides dissolved in PBS were then added to 50 μL of a solution of the stock hRBC in PBS to reach a final volume of 100 μL (final erythrocyte concentration, 5% v/v). The resulting suspension was incubated under agitation for 30 min at 37° C. The samples were then centrifuged at 800 g for 10 min. Release of hemoglobin was monitored by measuring the absorbance of the supernatant at 540 nm. Controls for zero hemolysis (blank) and 100% hemolysis consisted of hRBC suspended in PBS and Triton 1%, respectively.

[7] = system: Micrococcus Iuteus ATCC 9341; test: Antibacterial activity (MIC), growth inhibition in LB medium; type: cell-based, Micrococcus luteus; conditions: 100% inhibition of growth after 18–20 h
Method: (§1) (viii) Antibacterial activity of the peptides. The antibacterial activity of the diastereomers was examined in sterile 96-well plates (Nunc F96 microtiter plates) in a final volume of 100 μL as follows: Aliquots (50 μl) of a suspension containing bacteria at a concentration of 10^6 Colony-Forming Units (CFU)/ml LB (Lauria broth) medium were added to 50 μL of water or 66% pooled normal human serum in PBS, containing the peptide in 2-fold serial dilutions. Growth inhibition was determined by measuring the absorbance at 492 nm with a Microplate autoreader E1309 (Bio-tek Instruments), following incubation for 18–20 h at 37° C. […] The bacteria used were: Escherichia coli D21, Pseudomonas aeruginosa ATCC 27853, Acinetobacter calcoaceticus Ac11, Salmonella typhimurium LT2, Bacillus megaterium Bm11, Micrococcus Iuteus ATCC 9341, Bacillus subtilis ATCC 6051.

[8] = system: Salmonella typhimurium LT2; test: as above; type: cell-based; conditions: 100% inhibition of growth after 18–20 h
Method: as §1

SMILES: CC(C)C[C@H](NC(=O)[C@H](CCCCN)NC(=O)[C@@H](CC(C)C)NC(=O)[C@@H](CC(C)C)NC(=O)[C@H](CCCCN)NC(=O)[C@@H](N)CCCCN)C(=O)N[C@@H](CCCCN)C(=O)N[C@H](CC(C)C)C(=O)N[C@@H](CCCCN)C(=O)N[C@H](CC(C)C)C(=O)N[C@@H](CCCCN)C(=O)N[C@@H](CCCCN)C(N)=O [Peptide 25, [D]-L^3,4,8,10-K7L5] (H-KK[dL][dL]KLK[dL]K[dL]KK-NH2; N-terminus assumed)
- Minimal Inhibitory Concentration B. subtilis (ATCC 6051) [1]: 100 µM
- Minimal Inhibitory Concentration E. coli (D21) [2]: 80 µM
- Minimal Inhibitory Concentration P. aeruginosa (ATCC 27853) [3]: >200 µM
- Minimal Inhibitory Concentration A. calcoaceticus (Ac11) [4]: 200 µM
- Minimal Inhibitory Concentration B. megaterium (Bm11) [5]: 1 µM
- % hemolysis at 100 μM ([6]; hRBC): 0%

SMILES: CC[C@@H](C)[C@@H](NC(=O)[C@H](CC(C)C)NC(=O)[C@H](C)NC(=O)[C@@H]1CCCN1C(=O)[C@H](CC(C)C)NC(=O)CNC(=O)[C@@H](NC(=O)[C@@H](NC(=O)[C@H](CC(C)C)NC(=O)[C@H](NC(=O)[C@H](CCCCN)NC(=O)[C@H](CC(C)C)NC(=O)[C@H](NC(=O)[C@H](C)N)C(C)C)C(C)C)[C@@H](C)O)[C@@H](C)O)C(=O)N[C@@H](CO)C(=O)N[C@@H](Cc1c[nH]c2ccccc12)C(=O)N[C@H](C(=O)N[C@H](CCCCN)C(=O)N[C@@H](CCCNC(=N)N)C(=O)NCCN)[C@@H](C)CC [Peptide 21, [D]-V^5V^8I^17K^21-[4-22]-TAmel]
- Minimal Inhibitory Concentration E. coli (D21) [2]: 21 µM
- Minimal Inhibitory Concentration A. calcoaceticus (Ac11) [4]: 14 µM
- Minimal Inhibitory Concentration B. megaterium (Bm11) [5]: 1.2 µM
- Minimal Inhibitory Concentration M. luteus (ATCC 9341) [7]: 28 µM
- % hemolysis at 50 μM peptide ([6]; hRBC): 0%

SMILES: CC[C@H](C)[C@H](NC(=O)[C@H](CCCCN)NC(=O)[C@H]1CCCN1C(=O)[C@@H](NC(=O)[C@H](CC(C)C)NC(=O)[C@H](C)NC(=O)[C@H](Cc1ccccc1)NC(=O)[C@H](Cc1ccccc1)NC(=O)CNC(=O)[C@H](CCCCN)NC(=O)[C@@H](N)CCCCN)[C@@H](C)CC)C(=O)N[C@H](C(=O)N[C@@H](CO)C(=O)N[C@@H](CO)C(=O)N1CCC[C@H]1C(=O)N[C@@H](CC(C)C)C(=O)N[C@@H](Cc1ccccc1)C(=O)N[C@@H](CCCCN)C(=O)N[C@H](C(=O)N[C@H](CC(C)C)C(=O)N[C@H](CC(C)C)C(=O)N[C@@H](CO)C(=O)N[C@@H](C)C(=O)N[C@H](C(=O)O)C(C)C)[C@@H](C)O)[C@@H](C)CC [Peptide 6, K^1K^2[D]P^7L^18L^19[1-22]-par]
- Minimal Inhibitory Concentration E. coli (D21) [2]: 15 µM
- Minimal Inhibitory Concentration P. aeruginosa (ATCC 27853) [3]: 60 µM
- Minimal Inhibitory Concentration A. calcoaceticus (Ac11) [4]: 6 µM
- Minimal Inhibitory Concentration B. megaterium (Bm11) [5]: 6 µM
- % hemolysis at 50 μM peptide ([6]; hRBC): 0%
- Minimal Inhibitory Concentration S. typhimurium (LT2) [8]: 120 µM

SMILES: CC[C@H](C)[C@H](NC(=O)[C@H](CCCCN)NC(=O)[C@H]1CCCN1C(=O)[C@@H](NC(=O)[C@H](CC(C)C)NC(=O)[C@H](C)NC(=O)[C@H](Cc1ccccc1)NC(=O)[C@H](Cc1ccccc1)NC(=O)CN)[C@@H](C)CC)C(=O)N[C@H](C(=O)N[C@@H](CO)C(=O)N[C@@H](CO)C(=O)N1CCC[C@H]1C(=O)N[C@@H](CC(C)C)C(=O)N[C@@H](Cc1ccccc1)C(=O)N[C@@H](CCCCN)C(=O)N[C@H](C(=O)N[C@@H](CC(C)C)C(=O)N[C@@H](CC(C)C)C(=O)N[C@@H](CO)C(=O)N[C@@H](C)C(=O)N[C@H](C(=O)NCC(=O)N[C@@H](CO)C(=O)N[C@@H](C)C(=O)N[C@@H](CC(C)C)C(=O)N[C@@H](CO)C(=O)N[C@@H](CO)C(=O)N[C@@H](CO)C(=O)NCC(=O)NCC(=O)N[C@@H](CCC(N)=O)C(=O)N[C@@H](CCC(=O)NCCN)C(=O)NCCN)C(C)C)[C@@H](C)O)[C@@H](C)CC [Peptide 12, [D]P^7-TApar]
- Minimal Inhibitory Concentration B. subtilis (ATCC 6051) [1]: 2 µM
- Minimal Inhibitory Concentration E. coli (D21) [2]: 10 µM
- Minimal Inhibitory Concentration A. calcoaceticus (Ac11) [4]: 5 µM
- Minimal Inhibitory Concentration B. megaterium (Bm11) [5]: 1.2 µM
- Minimal Inhibitory Concentration M. luteus (ATCC 9341) [7]: 5 µM
- % hemolysis at 50 μM peptide ([6]; hRBC): 49%

SMILES: CC(C)C[C@H](NC(=O)[C@H](CCCCN)NC(=O)[C@@H](CC(C)C)NC(=O)[C@@H](CC(C)C)NC(=O)[C@H](CC(C)C)NC(=O)[C@@H](N)CCCCN)C(=O)N[C@@H](CCCCN)C(=O)N[C@H](CC(C)C)C(=O)N[C@@H](CCCCN)C(=O)N[C@H](CC(C)C)C(=O)N[C@@H](CC(C)C)C(=O)N[C@@H](CCCCN)C(N)=O [Peptide 24, [D]-L^3,4,8,10-K5L7] (H-KL[dL][dL]KLK[dL]K[dL]LK-NH2)
- Minimal Inhibitory Concentration B. subtilis (ATCC 6051) [1]: 2 µM
- Minimal Inhibitory Concentration E. coli (D21) 0% Serum ([2]; 0% Serum): 7 µM
- Minimal Inhibitory Concentration E. coli (D21) 33% Serum ([2]; 33% pooled human serum): 7 µM
- Minimal Inhibitory Concentration E. coli (D21) [2]: 7 µM
- Minimal Inhibitory Concentration P. aeruginosa (ATCC-27853) 0% Serum ([3]; 0% Serum): 10 µM
- Minimal Inhibitory Concentration P. aeruginosa (ATCC-27853) 33% Serum ([3]; 33% pooled human serum): 10 µM
- Minimal Inhibitory Concentration P. aeruginosa (ATCC 27853) [3]: 10 µM
- Minimal Inhibitory Concentration A. calcoaceticus (Ac11) [4]: 20 µM
- Minimal Inhibitory Concentration B. megaterium (Bm11) [5]: 0.25 µM
- % hemolysis at 100 μM ([6]; hRBC): 0%

SMILES: CC[C@H](C)[C@H](NC(=O)[C@H](CCCCN)NC(=O)[C@@H]1CCCN1C(=O)[C@@H](NC(=O)[C@H](CC(C)C)NC(=O)[C@H](C)NC(=O)[C@H](Cc1ccccc1)NC(=O)[C@H](Cc1ccccc1)NC(=O)CN)[C@@H](C)CC)C(=O)N[C@H](C(=O)N[C@@H](CO)C(=O)N[C@@H](CO)C(=O)N1CCC[C@H]1C(=O)N[C@@H](CC(C)C)C(=O)N[C@@H](Cc1ccccc1)C(=O)N[C@@H](CCCCN)C(=O)N[C@H](C(=O)N[C@H](CC(C)C)C(=O)N[C@H](CC(C)C)C(=O)N[C@@H](CO)C(=O)N[C@@H](C)C(=O)N[C@H](C(=O)NCC(=O)N[C@@H](CO)C(=O)N[C@@H](C)C(=O)N[C@@H](CC(C)C)C(=O)N[C@@H](CO)C(=O)N[C@@H](CO)C(=O)N[C@@H](CO)C(=O)NCC(=O)NCC(=O)N[C@@H](CCC(N)=O)C(=O)N[C@@H](CCC(=O)NCCN)C(=O)NCCN)C(C)C)[C@@H](C)O)[C@@H](C)CC [Peptide 14, [D]L^18L^19-TApar]
- Minimal Inhibitory Concentration B. subtilis (ATCC 6051) [1]: 1.5 µM
- Minimal Inhibitory Concentration E. coli (D21) [2]: 3.5 µM
- Minimal Inhibitory Concentration A. calcoaceticus (Ac11) [4]: 1.5 µM and 2.5 µM
- Minimal Inhibitory Concentration B. megaterium (Bm11) [5]: 0.6 µM
- Minimal Inhibitory Concentration M. luteus (ATCC 9341) [7]: 2.5 µM
- % hemolysis at 50 μM peptide ([6]; hRBC): 100%

SMILES: CC(C)C[C@H](NC(=O)[C@H](CC(C)C)NC(=O)[C@@H](CC(C)C)NC(=O)[C@@H](CC(C)C)NC(=O)[C@H](CC(C)C)NC(=O)[C@@H](N)CCCCN)C(=O)N[C@@H](CCCCN)C(=O)N[C@H](CC(C)C)C(=O)N[C@@H](CC(C)C)C(=O)N[C@H](CC(C)C)C(=O)N[C@@H](CC(C)C)C(=O)N[C@@H](CCCCN)C(N)=O [Peptide 22, [D]-L^3,4,8,10-K3L9] (H-KL[dL][dL]LLK[dL]L[dL]LK-NH2)
- Minimal Inhibitory Concentration B. subtilis (ATCC 6051) [1]: 1.1 µM
- Minimal Inhibitory Concentration E. coli (D21) [2]: 9 µM
- Minimal Inhibitory Concentration P. aeruginosa (ATCC 27853) [3]: 125 µM
- Minimal Inhibitory Concentration A. calcoaceticus (Ac11) [4]: 20 µM
- Minimal Inhibitory Concentration B. megaterium (Bm11) [5]: 0.7 µM
- hemolytic activity in comparison to melittin (fold less) ([6]; hRBC dose response): > 60 fold
- % hemolysis at 100 μM ([6]; hRBC): 58%

SMILES: CC[C@@H](C)[C@@H](NC(=O)[C@H](CC(C)C)NC(=O)[C@H](C)NC(=O)[C@@H]1CCCN1C(=O)[C@H](CC(C)C)NC(=O)CNC(=O)[C@@H](NC(=O)[C@@H](NC(=O)[C@H](CC(C)C)NC(=O)[C@H](NC(=O)[C@H](CCCCN)NC(=O)[C@H](CC(C)C)NC(=O)[C@H](NC(=O)[C@H](C)NC(=O)CNC(=O)[C@@H](NC(=O)CN)[C@@H](C)CC)C(C)C)C(C)C)[C@@H](C)O)[C@@H](C)O)C(=O)N[C@@H](CO)C(=O)N[C@@H](Cc1c[nH]c2ccccc12)C(=O)N[C@H](C(=O)N[C@H](CCCCN)C(=O)N[C@@H](CCCNC(=N)N)C(=O)N[C@@H](CCCCN)C(=O)N[C@@H](CCCNC(=N)N)C(=O)N[C@@H](CCC(N)=O)C(=O)N[C@@H](CCC(N)=O)C(=O)O)[C@@H](C)CC [Peptide 19, [D]-V^5V^8I^17K^21-mel-COOH]
- Minimal Inhibitory Concentration B. subtilis (ATCC 6051) [1]: 8 µM
- Minimal Inhibitory Concentration E. coli (D21) [2]: 18 µM
- Minimal Inhibitory Concentration A. calcoaceticus (Ac11) [4]: 18 µM
- Minimal Inhibitory Concentration B. megaterium (Bm11) [5]: 1.2 µM
- Minimal Inhibitory Concentration M. luteus (ATCC 9341) [7]: 50 µM
- % hemolysis at 50 μM peptide ([6]; hRBC): 0%
- hemolytic activity up to the maximum concentration tested ([6]; hRBC, up to 50 μM): practically devoid of hemolytic activity
